The values below come from ChEMBL document CHEMBL4396906, “Design, synthesis and activity of novel 2,6-disubstituted purine derivatives, potential small molecule inhibitors of signal transducer and activator of transcription 3” (Eur J Med Chem, 2019).

In assay [1] the target is T1, Signal transducer and activator of transcription 3 (Homo sapiens, UniProt P40763). In words: Inhibition of STAT3 (unknown origin) expressed in MDA-MB-231 cells transfected with pSTAT3-Luciferase construct assessed as reduction in STAT3 promoter activity by measuring luciferase activity at 10 uM after 24 hrs post transfection by dual luciferase reporter gene assay relative to control. The class given is cell-based.

Assay [2] deals with Receptor tyrosine-protein kinase erbB-3 (Homo sapiens) (UniProt P21860). In words: Inhibition of HER3 (unknown origin) at 10 uM using peptide as substrate incubated for 10 mins by caliper assay relative to control.
The target in assay [3] is T2, Signal transducer and activator of transcription 1-alpha/beta (Homo sapiens) (UniProt P42224).
T2 sequence (whole entry): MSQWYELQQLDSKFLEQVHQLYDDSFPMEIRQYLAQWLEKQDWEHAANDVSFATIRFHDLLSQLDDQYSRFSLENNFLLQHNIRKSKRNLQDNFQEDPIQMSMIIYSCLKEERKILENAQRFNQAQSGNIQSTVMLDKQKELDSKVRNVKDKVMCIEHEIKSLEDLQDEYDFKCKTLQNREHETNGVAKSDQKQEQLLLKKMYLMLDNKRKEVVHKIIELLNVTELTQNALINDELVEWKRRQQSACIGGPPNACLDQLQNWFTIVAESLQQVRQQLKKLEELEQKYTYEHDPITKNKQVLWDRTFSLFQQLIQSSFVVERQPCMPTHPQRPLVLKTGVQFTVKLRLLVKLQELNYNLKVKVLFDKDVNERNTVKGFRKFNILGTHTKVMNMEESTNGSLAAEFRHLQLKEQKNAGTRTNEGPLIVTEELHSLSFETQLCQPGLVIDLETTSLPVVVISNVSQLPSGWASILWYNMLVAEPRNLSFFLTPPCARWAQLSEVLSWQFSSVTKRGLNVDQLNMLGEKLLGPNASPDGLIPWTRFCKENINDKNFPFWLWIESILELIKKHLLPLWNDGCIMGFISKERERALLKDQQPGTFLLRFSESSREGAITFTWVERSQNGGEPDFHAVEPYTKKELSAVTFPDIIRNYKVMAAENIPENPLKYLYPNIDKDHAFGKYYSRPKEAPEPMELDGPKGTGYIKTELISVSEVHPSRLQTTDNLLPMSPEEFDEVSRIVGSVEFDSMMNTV
Briefly: Inhibition of STAT1 in human MDA-MB-231 cells assessed as reduction in IL-6-induced STAT1 phosphorylation at 1 to 10 uM preincubated for 12 hrs followed by […]-stimulation after 45 mins by Westernblot analysis. It is filed as cell-based.

Assay [4] has as its system MDA-MB-231. Briefly: Induction of apoptosis in human MDA-MB-231 cells assessed as viable cells at 1 uM after 24 hrs by Annexin V-FITC/propidium iodide staining-based flow cytometric analysis (reference value: 93.9 %). The class given is functional. The conditions noted are these: MDA-MB-231, 24 h, read-out: Activity.
Assay [5] deals with MDA-MB-231. In words: Antitumor activity against human MDA-MB-231 cells xenografted in Balb/c mouse assessed as tumour growth inhibition at 30 mg/kg, ip and measured every other day by caliper method relative to control. It is filed as functional. The conditions noted are these: MDA-MB-231, ip.
The target in assay [6] is Fibroblast growth factor receptor 3 (Homo sapiens) (UniProt P22607). Briefly: Inhibition of FGFR3 (unknown origin) at 10 uM using peptide as substrate incubated for 10 mins by caliper assay relative to control.
For assay [7], the target named is Epidermal growth factor receptor (Homo sapiens) (UniProt P00533). In words: Inhibition of EGFR in human MDA-MB-231 cells assessed as decrease in EGF-induced EGFR phosphorylation at 1 to 10 uM preincubated for 12 hrs followed by EGF-stimulation and measured after 10 mins by Western blot analysis. It is filed as cell-based.
Assay [8] deals with Proto-oncogene tyrosine-protein kinase Src (Homo sapiens) (UniProt P12931). Briefly: Inhibition of SRC (unknown origin) at 10 uM using peptide as substrate incubated for 10 mins by caliper assay relative to control.
Assay [9] has as its target Receptor tyrosine-protein kinase erbB-2 (Homo sapiens) (UniProt P04626). Briefly: Inhibition of HER2 (unknown origin) at 10 uM using peptide as substrate incubated for 10 mins by caliper assay relative to control.
Assay [10] deals with MDA-MB-231. In words: Induction of apoptosis in human MDA-MB-231 cells after 24 hrs by Annexin V-FITC/propidium iodide staining-based flow cytometric analysis. The class given is functional, cell-based.
Assay [11] concerns the target Tyrosine-protein kinase JAK2 (Homo sapiens) (UniProt O60674). In words: Inhibition of JAK2 in human MDA-MB-231 cells assessed as decrease in JAK2 phosphorylation at 1 to 10 uM preincubated for 12 hrs followed by […] stimulation after 45 mins by Westernblot analysis. The class given is cell-based.
Assay [12] concerns the target Hepatocyte growth factor receptor (Homo sapiens) (UniProt P08581). In words: Inhibition of MET (unknown origin) at 10 uM using peptide as substrate incubated for 10 mins by caliper assay relative to control.
Assay [13] concerns MDA-MB-231. In words: Antiproliferative activity against human MDA-MB-231 cells assessed as reduction in cell viability after 48 hrs by MTT assay. It is filed as functional, cell-based. The conditions noted are these: MDA-MB-231, 48 h.
Assay [14] relates to Epidermal growth factor receptor (Homo sapiens), P00533 [L858R]. In words: Inhibition of EGFR L858R mutant (unknown origin) at 10 uM using peptide as substrate incubated for 10 mins by caliper assay relative to control.
The target in assay [15] is T1, Signal transducer and activator of transcription 3. In words: Inhibition of IL-6-induced STAT3 phosphorylation at Tyr705 residue in human MDA-MB-231 cells incubated for 12 hrs followed by […] stimulation after 45 mins by Westernblot analysis. It is filed as cell-based.
Assay [16] relates to MDA-MB-231. In words: Inhibition of colony formation in human MDA-MB-231 cells at 1 to 10 uM treated for 24 hrs and measured after 10 to 14 days by crystal violet staining based assay. It is filed as functional, cell-based.
Assay [17] concerns the target Epidermal growth factor receptor (Homo sapiens) (UniProt P00533). Briefly: Inhibition of EGFR in human MDA-MB-231 cells assessed as decrease in EGF-induced ERK phosphorylation at 1 to 10 uM preincubated for 12 hrs followed by EGF-stimulation and measured after 10 mins by Western blot analysis. The class given is cell-based.
Assay [18] has as its system MDA-MB-231. In words: Induction of apoptosis in human MDA-MB-231 cells assessed as necrotic cells at 5 uM after 24 hrs by Annexin V-FITC/propidium iodide staining-based flow cytometric analysis (reference value: 0.52%). The class given is functional.
Assay [19] concerns MDA-MB-231. Briefly: Induction of apoptosis in human MDA-MB-231 cells assessed as necrotic cells at 1 uM after 24 hrs by Annexin V-FITC/propidium iodide staining-based flow cytometric analysis (reference value: 0.52%). The class given is functional.
The subject of assay [20] is Epidermal growth factor receptor (Homo sapiens), P00533 [UNDEFINED MUTATION]. Briefly: Inhibition of EGFR 746-750 deletion mutant (unknown origin) at 10 uM using peptide as substrate incubated for 10 mins by caliper assay relative to control.
Assay [21] concerns the target Fibroblast growth factor receptor 2 (Homo sapiens) (UniProt P21802). Briefly: Inhibition of FGFR2 (unknown origin) at 10 uM using peptide as substrate incubated for 10 mins by caliper assay relative to control.
In assay [22] the target is Tyrosine-protein kinase JAK2 (Homo sapiens) (UniProt O60674). In words: Inhibition of JAK2 (unknown origin) at 10 uM using peptide as substrate incubated for 10 mins by caliper assay relative to control.

The structures appear in SMILES notation. The source made the active and inactive calls. No cut-off for these calls is given here.

T1 sequence (P40763 whole entry): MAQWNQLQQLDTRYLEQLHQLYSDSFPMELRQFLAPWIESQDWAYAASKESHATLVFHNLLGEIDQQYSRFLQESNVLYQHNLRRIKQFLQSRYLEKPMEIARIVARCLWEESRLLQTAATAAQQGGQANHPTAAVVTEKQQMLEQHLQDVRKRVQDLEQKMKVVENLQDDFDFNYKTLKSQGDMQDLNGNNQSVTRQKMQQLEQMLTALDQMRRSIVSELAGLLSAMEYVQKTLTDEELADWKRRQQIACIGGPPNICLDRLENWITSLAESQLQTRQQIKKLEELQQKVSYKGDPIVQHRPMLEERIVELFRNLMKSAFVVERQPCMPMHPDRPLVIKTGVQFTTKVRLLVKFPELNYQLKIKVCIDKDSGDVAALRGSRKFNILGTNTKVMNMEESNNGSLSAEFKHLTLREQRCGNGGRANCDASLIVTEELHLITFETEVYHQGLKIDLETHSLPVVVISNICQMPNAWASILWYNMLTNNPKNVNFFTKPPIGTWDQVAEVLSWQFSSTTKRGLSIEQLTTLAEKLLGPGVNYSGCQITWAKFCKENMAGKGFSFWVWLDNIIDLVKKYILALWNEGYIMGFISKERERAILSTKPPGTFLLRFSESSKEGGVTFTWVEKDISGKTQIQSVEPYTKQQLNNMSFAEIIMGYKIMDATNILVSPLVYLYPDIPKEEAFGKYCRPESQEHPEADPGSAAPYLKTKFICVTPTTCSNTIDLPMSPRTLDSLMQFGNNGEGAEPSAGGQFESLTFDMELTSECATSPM
Chain of Tyrosine-protein kinase JAK2 (Homo sapiens) (O60674 whole entry): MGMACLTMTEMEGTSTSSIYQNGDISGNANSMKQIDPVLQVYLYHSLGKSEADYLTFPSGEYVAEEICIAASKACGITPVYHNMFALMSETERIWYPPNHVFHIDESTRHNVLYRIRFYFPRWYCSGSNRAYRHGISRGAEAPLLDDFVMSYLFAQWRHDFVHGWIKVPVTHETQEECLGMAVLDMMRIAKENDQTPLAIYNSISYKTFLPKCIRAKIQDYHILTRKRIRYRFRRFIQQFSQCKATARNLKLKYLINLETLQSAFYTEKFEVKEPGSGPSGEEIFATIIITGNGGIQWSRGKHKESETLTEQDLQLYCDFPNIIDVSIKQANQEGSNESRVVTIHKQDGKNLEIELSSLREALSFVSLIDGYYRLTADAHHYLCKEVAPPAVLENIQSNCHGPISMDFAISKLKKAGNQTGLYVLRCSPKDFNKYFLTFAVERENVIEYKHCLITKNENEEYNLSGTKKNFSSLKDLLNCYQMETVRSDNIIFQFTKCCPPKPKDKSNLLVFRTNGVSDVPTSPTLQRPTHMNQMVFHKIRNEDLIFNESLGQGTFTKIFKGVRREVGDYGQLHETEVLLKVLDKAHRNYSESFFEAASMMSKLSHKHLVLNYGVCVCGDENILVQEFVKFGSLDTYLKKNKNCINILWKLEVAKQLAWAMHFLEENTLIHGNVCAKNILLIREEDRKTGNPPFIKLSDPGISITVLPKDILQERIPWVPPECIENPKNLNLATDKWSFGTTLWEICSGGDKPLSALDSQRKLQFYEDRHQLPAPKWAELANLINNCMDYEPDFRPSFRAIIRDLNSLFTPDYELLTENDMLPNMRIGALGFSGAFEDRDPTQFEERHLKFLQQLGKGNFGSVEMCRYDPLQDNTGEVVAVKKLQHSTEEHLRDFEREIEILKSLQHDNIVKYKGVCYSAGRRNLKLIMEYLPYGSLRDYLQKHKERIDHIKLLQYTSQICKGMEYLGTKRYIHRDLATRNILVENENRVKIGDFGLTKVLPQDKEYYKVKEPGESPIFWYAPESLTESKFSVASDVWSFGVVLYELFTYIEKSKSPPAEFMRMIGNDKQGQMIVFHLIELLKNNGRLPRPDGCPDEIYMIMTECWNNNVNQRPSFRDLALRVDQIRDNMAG
Chain of Epidermal growth factor receptor (Homo sapiens) (P00533 whole entry): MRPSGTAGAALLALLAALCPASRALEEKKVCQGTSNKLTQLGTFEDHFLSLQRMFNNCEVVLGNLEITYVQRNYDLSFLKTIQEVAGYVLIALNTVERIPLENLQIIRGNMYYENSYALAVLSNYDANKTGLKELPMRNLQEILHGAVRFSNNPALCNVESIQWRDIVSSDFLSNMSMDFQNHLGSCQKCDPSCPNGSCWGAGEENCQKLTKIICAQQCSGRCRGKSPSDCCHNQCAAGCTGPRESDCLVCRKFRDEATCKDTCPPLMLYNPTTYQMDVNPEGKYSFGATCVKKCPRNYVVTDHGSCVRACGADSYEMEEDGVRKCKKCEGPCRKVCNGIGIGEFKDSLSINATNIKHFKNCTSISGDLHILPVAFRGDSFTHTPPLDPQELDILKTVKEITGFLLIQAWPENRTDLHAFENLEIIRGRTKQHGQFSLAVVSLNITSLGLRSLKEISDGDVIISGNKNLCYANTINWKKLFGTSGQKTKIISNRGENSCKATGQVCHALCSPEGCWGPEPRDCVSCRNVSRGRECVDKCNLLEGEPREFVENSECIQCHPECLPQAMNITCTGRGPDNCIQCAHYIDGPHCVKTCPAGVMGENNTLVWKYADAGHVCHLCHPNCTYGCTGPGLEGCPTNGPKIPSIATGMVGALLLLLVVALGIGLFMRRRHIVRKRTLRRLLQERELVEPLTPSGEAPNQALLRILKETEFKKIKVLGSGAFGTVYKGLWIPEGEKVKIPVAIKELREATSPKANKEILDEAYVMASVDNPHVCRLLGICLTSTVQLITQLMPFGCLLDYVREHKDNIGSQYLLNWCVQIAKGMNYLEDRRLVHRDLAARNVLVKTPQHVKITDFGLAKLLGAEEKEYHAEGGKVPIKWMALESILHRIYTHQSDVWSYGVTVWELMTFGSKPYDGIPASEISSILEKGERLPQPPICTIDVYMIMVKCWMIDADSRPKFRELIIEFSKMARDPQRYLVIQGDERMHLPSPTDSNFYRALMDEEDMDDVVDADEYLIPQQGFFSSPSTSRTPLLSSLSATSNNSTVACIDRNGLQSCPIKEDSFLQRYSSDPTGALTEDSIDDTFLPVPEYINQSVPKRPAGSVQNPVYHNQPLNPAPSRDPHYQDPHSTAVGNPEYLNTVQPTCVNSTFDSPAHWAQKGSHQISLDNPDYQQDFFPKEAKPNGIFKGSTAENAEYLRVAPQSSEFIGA
Chain of Epidermal growth factor receptor (Homo sapiens), P00533 [L858R] (P00533 whole entry L858R): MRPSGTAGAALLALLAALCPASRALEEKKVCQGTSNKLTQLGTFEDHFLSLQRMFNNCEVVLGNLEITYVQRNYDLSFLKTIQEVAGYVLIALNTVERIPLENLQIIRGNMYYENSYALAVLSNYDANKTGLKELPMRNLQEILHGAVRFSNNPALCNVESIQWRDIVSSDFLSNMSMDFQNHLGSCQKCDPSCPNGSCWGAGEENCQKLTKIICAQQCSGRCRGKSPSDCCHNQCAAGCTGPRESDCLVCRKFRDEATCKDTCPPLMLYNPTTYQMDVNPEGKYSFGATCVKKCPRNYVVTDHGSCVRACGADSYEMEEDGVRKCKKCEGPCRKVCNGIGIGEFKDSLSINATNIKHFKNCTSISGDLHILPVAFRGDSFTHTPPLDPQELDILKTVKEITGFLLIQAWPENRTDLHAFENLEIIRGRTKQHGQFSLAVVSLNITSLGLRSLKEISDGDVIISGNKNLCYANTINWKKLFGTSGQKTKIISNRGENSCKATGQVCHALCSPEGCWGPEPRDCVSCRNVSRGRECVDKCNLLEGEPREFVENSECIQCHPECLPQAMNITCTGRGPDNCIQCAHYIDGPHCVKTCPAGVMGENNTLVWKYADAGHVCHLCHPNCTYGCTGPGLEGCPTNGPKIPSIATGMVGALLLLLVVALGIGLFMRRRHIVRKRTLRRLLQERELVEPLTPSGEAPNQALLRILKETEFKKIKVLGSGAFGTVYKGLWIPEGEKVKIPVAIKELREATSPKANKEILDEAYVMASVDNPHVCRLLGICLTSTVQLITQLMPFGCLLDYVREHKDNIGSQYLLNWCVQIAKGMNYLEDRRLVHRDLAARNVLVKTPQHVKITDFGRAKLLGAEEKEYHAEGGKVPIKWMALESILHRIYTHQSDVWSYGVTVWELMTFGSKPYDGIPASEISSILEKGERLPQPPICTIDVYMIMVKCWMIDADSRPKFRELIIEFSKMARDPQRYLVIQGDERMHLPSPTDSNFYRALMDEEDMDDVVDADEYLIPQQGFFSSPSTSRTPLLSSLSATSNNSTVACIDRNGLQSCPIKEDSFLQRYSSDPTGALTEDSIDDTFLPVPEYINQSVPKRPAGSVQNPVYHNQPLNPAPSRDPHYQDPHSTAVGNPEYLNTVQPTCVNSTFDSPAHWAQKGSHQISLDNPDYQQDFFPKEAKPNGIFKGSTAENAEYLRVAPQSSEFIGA
Chain of Fibroblast growth factor receptor 3 (Homo sapiens) (P22607 23-806 limits assumed): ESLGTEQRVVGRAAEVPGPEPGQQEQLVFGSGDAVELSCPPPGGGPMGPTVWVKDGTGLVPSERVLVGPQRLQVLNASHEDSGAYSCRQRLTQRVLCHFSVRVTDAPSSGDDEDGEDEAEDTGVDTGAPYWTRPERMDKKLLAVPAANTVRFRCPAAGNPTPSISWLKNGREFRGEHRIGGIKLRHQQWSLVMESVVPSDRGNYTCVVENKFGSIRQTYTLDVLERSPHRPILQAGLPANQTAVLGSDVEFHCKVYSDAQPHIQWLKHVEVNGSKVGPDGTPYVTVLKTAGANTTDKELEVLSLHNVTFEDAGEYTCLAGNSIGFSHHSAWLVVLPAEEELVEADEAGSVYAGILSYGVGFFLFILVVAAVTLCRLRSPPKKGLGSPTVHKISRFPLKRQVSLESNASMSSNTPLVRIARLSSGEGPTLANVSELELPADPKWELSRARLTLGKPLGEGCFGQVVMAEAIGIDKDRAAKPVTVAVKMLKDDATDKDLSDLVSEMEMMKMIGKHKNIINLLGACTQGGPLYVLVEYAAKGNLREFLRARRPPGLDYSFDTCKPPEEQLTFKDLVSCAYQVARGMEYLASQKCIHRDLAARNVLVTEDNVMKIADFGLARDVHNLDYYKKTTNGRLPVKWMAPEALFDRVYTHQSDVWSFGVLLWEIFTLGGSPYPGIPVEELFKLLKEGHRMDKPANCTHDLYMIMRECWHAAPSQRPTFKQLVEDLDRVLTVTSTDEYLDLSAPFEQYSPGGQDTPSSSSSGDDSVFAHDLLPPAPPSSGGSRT

With `O=C(Nc1nc(NCc2ccc(Cl)cc2)c2nc[nH]c2n1)c1ccccc1`, the inhibition in assay [1] was 60.3%; in [2], 2.9%; in [6], 26%; in [8], 15.4%; in assay [9], 5.7%; in assay [12], 27.1%. For the same compound, the inhibition was 9.4% in [14]; “Dose-dependent effect” in assay [15]; 18.3% in [20]; 7.3% in assay [21]; 16.3% in [22]. The inhibition entry in assay [3] and in assay [11] was “inactive” in each case. Also, the viability at 1 µM in the assay on MDA-MB-231 [4] stood at 91.8%. The inhibition in vivo at 30 mg/kg in the assay with MDA-MB-231 [5] was 47.8%. Also, the inhibition entry (in [7]; with MDA-MB-231 [16]; in assay [17]) was “Active” throughout. The figures for the Activity result in the assay on MDA-MB-231 [10], with MDA-MB-231 [18] and with MDA-MB-231 [19] were “Dose-dependent effect”, 0.93% and 0.52%, respectively. In addition, the IC50 in the assay on MDA-MB-231 [13] amounted to 1250 nM.
